Assay results from patent publication EP0889898B1, “MORPHOLINYL ANTHRACYCLINE DERIVATIVES” (PHARMACIA & UPJOHN S.p.A., priority 1996, dated 1998).

Test system: L1210 leukemia cells
Experiment: In vitro cytotoxic activity, growth inhibition test (colony growth), 48h treatment
Assay type: cell-based
Conditions: ratio of IC50 values versus compound 1
Description: 3'-Deamino-3",4'-anhydro-[2"(S)-methoxy-3"(R)-hydroxy-4"-morpholinyl]doxorubicin 2a was tested in vitro on L1210 leukemia cells in comparison with 3'-deamino-3'-[2"(S)-methoxy-4"-morpholinyl]doxorubicin (1). The cytotoxic activity is reported as IC50, the concentration inhibiting 50% of colony growth, calculated on concentration response curves. […]

## COc1cccc2c1C(=O)c1c(O)c3c(c(O)c1C2=O)CC(O)(C(=O)CO)CC3OC1CC2C(OC3C(OC)OCCN23)C(C)O1 [Compound 2a, 3'-deamino-3"-4'-anhydro-[2"(S)-methoxy-3"(R)-hydroxy-4"-morpholinyl]doxorubicin]
  fold more potent than compound 1: 2.5x10^3 fold
